Experiments:
[1] = system: patients suffering from advanced breast cancer; experiment: Phase Ia dose-escalating study, tumor assessment every 28 days; assay type: in vivo, humans
Method: (§1) The clinical trial includes two phases: Phase I aims to seek the maximum tolerated dose in the patients. Phase II aims to obtain the administration dosage to the patient treatments.
(§2) 1.1 Phase 1a: Dose-escalating study with patients suffering from advanced breast cancer. Cohorts of 3-6 patients received one dose, and 6 planned doses of 50, 100, 200, 400, 800, 1600 mg/day were orally administered to the patients over at least a 28-day cycle. 1.2 Phase 1b: Fixed doses of Icaritin with 600 mg and 800 mg BID (Bis in diem) were administered to patients suffering from advanced solid tumors for at least a 28 day cycle. 2. Major Inclusion Criteria
(§3) Phase Ia: Females of age≧18 years old and ≦65 years old, suffering from advanced breast cancer which was not responsive to previous standard treatments, were selected based on Eastern Cooperative Oncology Group (ECOG) score≦1.
Tumor assessment was performed every 28 days. […] Further, 1 patient completed 9 cycles.

[2] = system: patients suffering from advanced breast cancer; experiment: Phase Ia dose-escalating study, adverse events; assay type: in vivo; settings: up to 1600 mg/d
Description: “Maximum Tolerated Dose (MTD)” means the highest dose of a radiological or pharmacological treatment that will produce the desired effect without unacceptable toxicity. In the present invention, MTD is one dose level below the cohort in which 2 patients experienced a drug-related dose limited toxicity in cycle 1.
as §1, §2, §3

[3] = Phase Ia pharmacokinetics, plasma concentration before or after meal; assay type: in vivo, humans; settings: for half-life: female, human, plasma, oral
Method: as §2

[4] = system: patients suffering from advanced solid tumors; experiment: Phase Ib fixed-dose study, (serious) adverse events; assay type: in vivo, humans
Method: as §2
(§4) Phase Ib: Advanced cancer patients without standard treatment, especially HCC patients with Child-Pugh Class A or B liver function, were selected.
(§5) Phase Ib: Patients with the following conditions were excluded: ECOG score≧2, ANC≦1500 cells/μL, platelet≦80,000 cells/μL, Hb≦9.0 g/dL, bilirubin>1.5×ULN, AST or ALT>5×ULN, or albumin<2.8 g/dL.
(§6) The patients with the following conditions were also excluded: prior systemic chemotherapy, chemoembolization, percutaneous ethanol injection, or surgery for HCC<30 days.

HCC patients = experiment: Phase Ib efficacy and survival of HCC patients; assay type: in vivo, humans
Description: “CR” means a complete response was achieved after treatment, that is, all signs of cancer in the patient disappeared in response to the treatment.
“SD” means a stable disease state was seen, that is, at the end of the treatment, the disease state of the patient was little changed from pre-treatment conditions.
“OS” means overall survival days of patients. Overall survival is an indication of the proportion of people within a group who are expected to be alive after a specified time, taking into account death due to any cause, both related and unrelated to the cancer in question.
“TTP” means time to progression in the patients, that is, the length of time from the date of diagnosis or the start of treatment for a disease until the disease starts to get worse or spread to other parts of the body. In a clinical trial, measuring the time to progression is one way to see how well a new treatment works.
as §2, §4, §5, §6

[5] = 600 mg bid (n = 12), based on evaluable patients, assessment every 2 cycles
[6] = 800 mg bid (n = 5), based on evaluable patients, assessment every 2 cycles

COc1ccc(-c2oc3c(CC=C(C)C)c(O)cc(O)c3c(=O)c2O)cc1 [Icaritin]
Tumor response (CR or PR) ([1]; Phase Ia, 50-1600 mg/day oral, assessment every 28 days): No CR or PR was observed | Anti-tumor effect in advanced breast cancer ([1]; overall conclusion): potential anti-tumor effect | Tolerability in patients with advanced malignancies [2]: well tolerated | Dose tolerated toxicity ([2]; this phase of clinical trial): no dose tolerated toxicity was found | Plasma concentration after a meal versus fasting ([3]; 800 mg once daily, FIG. 1): higher | Absorption saturation ([3]; 1600 mg): absorption saturation occurs | Plasma concentration after a meal versus fasting ([3]; 1600 mg once daily, FIG. 2): higher | Plasma concentration versus dose ([3]; 400, 800 and 1600 mg once daily after meal, FIG. 3): increases with dose but not in a completely linear pattern | Bioavailability, post-meal (fed) dosing versus fasting dosing ([3]; 800 and 1600 mg): better bioavailability in fed dosing | half-life ([3]; 800 mg Icaritin BID): 4.8 ± 2.7 h | half-life ([3]; 1600 mg Icaritin BID): 4.5 ± 0.8 h | Maximum plasma concentration at 800 mg compared with 1600 mg ([3]; once daily after meal, FIG. 3): close to the plasma concentration of 1600 mg Icaritin | G2 drug-related adverse events ([4]; 600 mg and 800 mg BID): no G2 drug-related adverse events was observed | Serious adverse event Cardiac sudden death, No ([4]; dose 600): 1 | Serious adverse event Cardiac sudden death, outcomes ([4]; dose 600): death | Serious adverse event Cardiac sudden death, relationship ([4]; dose 600): Unlikely related | Serious adverse event Dyspnea, No ([4]; dose 600): 2 | Serious adverse event Dyspnea, outcomes ([4]; dose 600): Death | Serious adverse event Dyspnea, relationship ([4]; dose 600): Not related | Serious adverse event Liver abscess, No ([4]; dose 600): 1 | Serious adverse event Liver abscess, outcomes ([4]; dose 600): unresolved | Serious adverse event Liver abscess, relationship ([4]; dose 600): Not related | Serious adverse event epilepsy, No ([4]; dose 600): 1 | Serious adverse event epilepsy, outcomes ([4]; dose 600): unresolved | Serious adverse event epilepsy, relationship ([4]; dose 600): Not related | Serious adverse event GI bleeding, No ([4]; dose 600/800): 2 | Serious adverse event GI bleeding, outcomes ([4]; dose 600/800): resolved/death | Serious adverse event GI bleeding, relationship ([4]; dose 600/800): Not related | Serious adverse event Sepsis, No ([4]; dose 800): 1 | Serious adverse event Sepsis, outcomes ([4]; dose 800): resolved | Serious adverse event Sepsis, relationship ([4]; dose 800): Not related | Serious adverse effect of pneumonia, relationship to drug ([4]; only one observed during study): not considered drug-related | Best response PD, patients (%) (HCC patients; [5]): 4 (40%) patients (%) | Best response PR, patients (%) (HCC patients; [5]): 1 (10%) patients (%) | Best response SD, patients (%) (HCC patients; [5]): 5 (50%) patients (%) | Best response PD, patients (%) (HCC patients; [6]): 3 (60%) patients (%) | Best response PR, patients (HCC patients; [6]): 0 patients | Best response SD, patients (HCC patients; [6]): 0 patients | Median OS of HCC patients (HCC patients; Phase Ib, 17 patients analyzed, 95% CI:32-265, FIG. 7): 113 days | Median TTP of HCC patients (HCC patients; Phase Ib, FIG. 6): 112 days | AFP of HCC patient, as treatment progressed (HCC patients; after decrease under treatment, FIG. 5): 3.53 ng/mL | Abdominal lymph nodes, B-mode ultrasound image of an HCC patient (HCC patients; after eight months of treatment, FIG. 4a/4b): complete disappearance of abdominal lymph nodes | AFP of HCC patient, start value (HCC patients; before the decrease, FIG. 5): 5216 ng/mL | Efficacy in hepatocellular cancer (HCC patients; overall conclusion): promising efficacy

— patent US9301942B2, “Use of icaritin for the preparation of composition for treating cancer” (priority 2013, dated 2016)
